Results taken from patent publication US20070173496A1, “Novel polymorph E of Olanzapine and preparation of anhydrous non-solvated crystalline polymorphic Form I of 2-methyl-4(4-methyl-1-piperazinyl)-10H-thieno[2,3-b][1,5] benzodiazepine (Olanzapine Form I) from the polymorphic Olanzapine Form E” (priority 2006, published 2007).

Tests used:
[1] = color stability of Olanzapine Form I on exposure at room temperature / in air; format: physicochemical; conditions: Form I from Form E by rapid crystallization in methylene chloride-methanol and step-wise drying, at least 3 months
From the text: In another aspect of this invention the new poly-type Olanzapine Form E generated with rapid crystallization in methylene chloride-methanol along with step-wise drying techniques produces non-solvated anhydrous Form I of 2-methyl-4-(4-methyl-1-piperazinyl)-10H-thieno[2,3-b][1,5] benzodiazepine which is stable enough to be used commercially in pharmaceutical formulations.

[2] = commercially available Form I prepared by prior art methods (U.S. Pat. No. 5,229,382); cited from earlier work
[3] = solid-state stability of poly-type Form E at room temperature; format: physicochemical; conditions: step-wise drying converts it to Form I
From the text: The new poly-type E is stable at room temperature but when subjected to step-wise drying techniques results in substantially pure Olanzapine Form I.

Cc1cc2c(s1)Nc1ccccc1N=C2N1CCN(C)CC1 [Olanzapine Form I, 2-methyl-4-(4-methyl-1-piperazinyl)-10H-thieno[2,3-b][1,5] benzodiazepine]
color change during exposure at room temperature [1]: No color change | color change over time due to exposure in air [2]: color is found to change over time

Cc1cc2c(s1)Nc1ccccc1N=C2N1CCN(C)CC1 [poly-type E, 2-methyl-4-(4-methyl-1-piperazinyl)-10H-thieno[2,3-b][1,5] benzodiazepine]
stability at room temperature [3]: stable
